# According to patent publication US6355799B1, “Substituted benzene compounds, process for their preparation, and herbicidal and defoliant compositions containing them” (ISK Americas Incorporated, priority 1997, dated 2002):
# Assays:
# Format in all cases: in vivo
# [1] = test system: redroot pigweed (Amaranthus retroflexus, AMARE); assay: Pre-emerge test, greenhouse herbicide activity screening; details: for Pre-emerge Herbicidal Activity, phytotoxicity rating (0-100), AMARE: rated 14 days after application, 0 = no damage, 100 = complete death; for Pre-emerge Herbicidal Activity AMARE: phytotoxicity rating 0-100, 14 days after application
# Summary of the method: (§1)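 Rating: 0–100 visual injury, 14 DAA. Application: acetone, 187 l/ha, 15–1000 g ai/ha, flat-fan track sprayer with nozzle 40–45 cm above soil or canopy. Post-emerge runs used 0.25% v/v surfactant on 2–3 leaf plants.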
# [2] = test system: barnyardgrass (Echinochloa crus-galli, ECHCG); assay: as above; details: for Pre-emerge Herbicidal Activity, phytotoxicity rating (0-100), ECHCG: rated 14 days after application, 0 = no damage, 100 = complete death; for Pre-emerge Herbicidal Activity ECHCG: phytotoxicity rating 0-100, 14 days after application
# Summary of the method: (§2)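 Compounds in acetone were track-sprayed at 15–1000 g ai/ha: pre-emergence onto soil sown the previous day, then top-watered to incorporate and later bottom-watered; post-emergence onto 2–3 leaf plants with 0.25% v/v surfactant, bottom-watered only. Ratings on a 0–100 phytotoxicity scale were taken at day 14.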
# [3] = test system: green foxtail (Setaria viridis, SETVI); assay: as above; details: for Pre-emerge Herbicidal Activity, phytotoxicity rating (0-100), SETVI: rated 14 days after application, 0 = no damage, 100 = complete death; for Pre-emerge Herbicidal Activity SETVI: phytotoxicity rating 0-100, 14 days after application
# Summary of the method: as §2
# [4] = test system: ivyleaf morningglory (Ipomoea hederacea, IPOHE); assay: as above; details: for Pre-emerge Herbicidal Activity, phytotoxicity rating (0-100), IPOHE: rated 14 days after application, 0 = no damage, 100 = complete death; for Pre-emerge Herbicidal Activity IPOHE: phytotoxicity rating 0-100, 14 days after application
# Summary of the method: as §2
# [5] = test system: johnsongrass (Sorghum halepense, SORHA); assay: as above; details: for Pre-emerge Herbicidal Activity, phytotoxicity rating (0-100), SORHA: rated 14 days after application, 0 = no damage, 100 = complete death; for Pre-emerge Herbicidal Activity SORHA: phytotoxicity rating 0-100, 14 days after application
# Summary of the method: as §2
# [6] = test system: lambsquarters (Chenopodium album, CHEAL); assay: as above; details: for Pre-emerge Herbicidal Activity, phytotoxicity rating (0-100), CHEAL: rated 14 days after application, 0 = no damage, 100 = complete death; for Pre-emerge Herbicidal Activity CHEAL: phytotoxicity rating 0-100, 14 days after application
# Summary of the method: as §2
# [7] = test system: large crabgrass (Digitaria sanguinalis, DIGSA); assay: as above; details: for Pre-emerge Herbicidal Activity, phytotoxicity rating (0-100), DIGSA: rated 14 days after application, 0 = no damage, 100 = complete death; for Pre-emerge Herbicidal Activity DIGSA: phytotoxicity rating 0-100, 14 days after application
# Summary of the method: as §2
# [8] = test system: sicklepod (Cassia obtusifolia, CASOB); assay: as above; details: for Pre-emerge Herbicidal Activity, phytotoxicity rating (0-100), CASOB: rated 14 days after application, 0 = no damage, 100 = complete death; for Pre-emerge Herbicidal Activity CASOB: phytotoxicity rating 0-100, 14 days after application
# Summary of the method: as §2
# [9] = test system: velvetleaf (Abutilon theophrasti, ABUTH); assay: as above; details: for Pre-emerge Herbicidal Activity, phytotoxicity rating (0-100), ABUTH: rated 14 days after application, 0 = no damage, 100 = complete death; for Pre-emerge Herbicidal Activity ABUTH: phytotoxicity rating 0-100, 14 days after application
# Summary of the method: as §2
# [10] = test system: field corn (Zea mays L., var. Dekalb 535, CORN); assay: Pre-emerge test, crop safety; details: for Pre-emerge phytotoxicity rating (0-100), crop damage, CORN: rated 14 days after application, 0 = no damage, 100 = complete death; for Pre-emerge Herbicidal Activity CORN: crop damage rating 0-100, 14 days after application
# Summary of the method: (§3)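 Fourteen days after spraying, crop and weed injury was graded visually from 0, no effect, to 100, every plant dead. Test substances were dissolved in acetone and applied at 15–1000 g ai/ha with a flat-fan nozzle. Application was either pre-emergence, one day after sowing, or post-emergence at the 2–3 leaf stage.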
# [11] = test system: upland rice (Oryza sp., var. Tebonnet, RICE); assay: Pre-emerge test, crop safety; details: for Pre-emerge phytotoxicity rating (0-100), crop damage, RICE: rated 14 days after application, 0 = no damage, 100 = complete death; for Pre-emerge Herbicidal Activity RICE: crop damage rating 0-100, 14 days after application
# Summary of the method: as §3
# [12] = test system: barnyardgrass (Echinochloa crus-galli, ECHCG); assay: Post-emerge test, greenhouse herbicide activity screening; details: post-emerge, 14 days after application, rating scale 0-100
# Summary of the method: as §2
# [13] = test system: green foxtail (Setaria viridis, SETVI); assay: as above; details: post-emerge, 14 days after application, rating scale 0-100
# Summary of the method: as §2
# [14] = test system: ivyleaf morningglory (Ipomoea hederacea, IPOHE); assay: as above; details: post-emerge, 14 days after application, rating scale 0-100
# Summary of the method: as §2
# [15] = test system: johnsongrass (Sorghum halepense, SORHA); assay: as above; details: post-emerge, 14 days after application, rating scale 0-100
# Summary of the method: as §2
# [16] = test system: large crabgrass (Digitaria sanguinalis, DIGSA); assay: as above; details: post-emerge, 14 days after application, rating scale 0-100
# Summary of the method: as §2
# [17] = test system: redroot pigweed (Amaranthus retroflexus, AMARE); assay: as above; details: post-emerge, 14 days after application
# Summary of the method: as §2
# [18] = test system: sicklepod (Cassia obtusifolia, CASOB); assay: as above; details: post-emerge, 14 days after application, rating scale 0-100
# Summary of the method: as §2
# [19] = test system: velvetleaf (Abutilon theophrasti, ABUTH); assay: as above; details: post-emerge, 14 days after application, rating scale 0-100
# Summary of the method: as §2
# [20] = test system: field corn (Zea mays L., var. Dekalb 535, CORN); assay: Post-emerge test, crop safety; details: post-emerge, 14 days after application, rating scale 0-100
# Summary of the method: as §1
# [21] = test system: upland rice (Oryza sp., var. Tebonnet, RICE); assay: Post-emerge test, crop safety; details: post-emerge, 14 days after application, rating scale 0-100
# Summary of the method: as §1
# [22] = 250 g ai/ha, rating scale 0-100
smiles,measurement,setting,value
CCOC(=O)C(=O)Nc1c(OC)c(Cl)cc(F)c1-n1c(=O)cc(C(F)(F)F)n(C)c1=O [2-118],"Pre-emerge Herbicidal Activity, phytotoxicity rating (0-100), AMARE",[1]; 63 g ai/ha,40
same,"Pre-emerge Herbicidal Activity, phytotoxicity rating (0-100), AMARE",[1]; 250 g ai/ha,100
same,"Pre-emerge Herbicidal Activity, phytotoxicity rating (0-100), ECHCG",[2]; 63 g ai/ha,0
same,"Pre-emerge Herbicidal Activity, phytotoxicity rating (0-100), ECHCG",[2]; 250 g ai/ha,0
same,"Pre-emerge Herbicidal Activity, phytotoxicity rating (0-100), SETVI",[3]; 63 g ai/ha,0
same,"Pre-emerge Herbicidal Activity, phytotoxicity rating (0-100), SETVI",[3]; 250 g ai/ha,50
same,"Pre-emerge Herbicidal Activity, phytotoxicity rating (0-100), IPOHE",[4]; 63 g ai/ha,10
same,"Pre-emerge Herbicidal Activity, phytotoxicity rating (0-100), IPOHE",[4]; 250 g ai/ha,80
same,"Pre-emerge Herbicidal Activity, phytotoxicity rating (0-100), SORHA",[5]; 63 g ai/ha,0
same,"Pre-emerge Herbicidal Activity, phytotoxicity rating (0-100), SORHA",[5]; 250 g ai/ha,0
same,"Pre-emerge Herbicidal Activity, phytotoxicity rating (0-100), CHEAL",[6]; 63 g ai/ha,90
same,"Pre-emerge Herbicidal Activity, phytotoxicity rating (0-100), CHEAL",[6]; 250 g ai/ha,100
same,"Pre-emerge Herbicidal Activity, phytotoxicity rating (0-100), DIGSA",[7]; 63 g ai/ha,0
same,"Pre-emerge Herbicidal Activity, phytotoxicity rating (0-100), DIGSA",[7]; 250 g ai/ha,20
same,"Pre-emerge Herbicidal Activity, phytotoxicity rating (0-100), CASOB",[8]; 63 g ai/ha,90
same,"Pre-emerge Herbicidal Activity, phytotoxicity rating (0-100), CASOB",[8]; 250 g ai/ha,40
same,"Pre-emerge Herbicidal Activity, phytotoxicity rating (0-100), ABUTH",[9]; 63 g ai/ha,90
same,"Pre-emerge Herbicidal Activity, phytotoxicity rating (0-100), ABUTH",[9]; 250 g ai/ha,100
same,"Pre-emerge phytotoxicity rating (0-100), crop damage, CORN",[10]; 63 g ai/ha,0
same,"Pre-emerge phytotoxicity rating (0-100), crop damage, CORN",[10]; 250 g ai/ha,10
same,"Pre-emerge phytotoxicity rating (0-100), crop damage, RICE",[11]; 63 g ai/ha,0
same,"Pre-emerge phytotoxicity rating (0-100), crop damage, RICE",[11]; 250 g ai/ha,30
same,phytotoxicity rating ECHCG,[12]; 63 g ai/ha,0
same,phytotoxicity rating ECHCG,[12]; 250 g ai/ha,0
same,phytotoxicity rating SETVI,[13]; 63 g ai/ha,0
same,phytotoxicity rating SETVI,[13]; 250 g ai/ha,0
same,phytotoxicity rating IPOHE,[14]; 63 g ai/ha,50
same,phytotoxicity rating IPOHE,[14]; 250 g ai/ha,90
same,phytotoxicity rating SORHA,[15]; 63 g ai/ha,0
same,phytotoxicity rating SORHA,[15]; 250 g ai/ha,0
same,phytotoxicity rating DIGSA,[16]; 63 g ai/ha,0
same,phytotoxicity rating DIGSA,[16]; 250 g ai/ha,0
same,phytotoxicity rating AMARE,"[17]; 63 g ai/ha, rating scale 0-100",30
same,phytotoxicity rating AMARE,[17]; [22],30
same,phytotoxicity rating CASOB,[18]; 63 g ai/ha,0
same,phytotoxicity rating CASOB,[18]; 250 g ai/ha,30
same,phytotoxicity rating ABUTH,[19]; 63 g ai/ha,60
same,phytotoxicity rating ABUTH,[19]; 250 g ai/ha,80
same,phytotoxicity rating CORN,[20]; 63 g ai/ha,10
same,phytotoxicity rating CORN,[20]; 250 g ai/ha,20
same,phytotoxicity rating RICE,[21]; 63 g ai/ha,10
same,phytotoxicity rating RICE,[21]; 250 g ai/ha,10
CCOC(=O)C(C)Oc1c(Cl)cc(F)c(-n2c(=O)cc(C(F)(F)F)n(C)c2=O)c1NC(=O)c1ccc2ccccc2c1 (stereo not drawn) [2-191],Pre-emerge Herbicidal Activity AMARE,[1]; 63 g ai/ha,100
same,Pre-emerge Herbicidal Activity AMARE,[1]; 250 g ai/ha,100
same,Pre-emerge Herbicidal Activity ECHCG,[2]; 63 g ai/ha,0
same,Pre-emerge Herbicidal Activity ECHCG,[2]; 250 g ai/ha,10
same,Pre-emerge Herbicidal Activity SETVI,[3]; 63 g ai/ha,40
same,Pre-emerge Herbicidal Activity SETVI,[3]; 250 g ai/ha,80
same,Pre-emerge Herbicidal Activity IPOHE,[4]; 63 g ai/ha,10
same,Pre-emerge Herbicidal Activity IPOHE,[4]; 250 g ai/ha,40
same,Pre-emerge Herbicidal Activity SORHA,[5]; 63 g ai/ha,0
same,Pre-emerge Herbicidal Activity SORHA,[5]; 250 g ai/ha,50
same,Pre-emerge Herbicidal Activity CHEAL,[6]; 63 g ai/ha,100
same,Pre-emerge Herbicidal Activity CHEAL,[6]; 250 g ai/ha,100
same,Pre-emerge Herbicidal Activity DIGSA,[7]; 63 g ai/ha,0
same,Pre-emerge Herbicidal Activity DIGSA,[7]; 250 g ai/ha,70
same,Pre-emerge Herbicidal Activity CASOB,[8]; 63 g ai/ha,10
same,Pre-emerge Herbicidal Activity CASOB,[8]; 250 g ai/ha,30
same,Pre-emerge Herbicidal Activity ABUTH,[9]; 63 g ai/ha,80
same,Pre-emerge Herbicidal Activity ABUTH,[9]; 250 g ai/ha,100
same,Pre-emerge Herbicidal Activity CORN,[10]; 63 g ai/ha,0
same,Pre-emerge Herbicidal Activity CORN,[10]; 250 g ai/ha,0
same,Pre-emerge Herbicidal Activity RICE,[11]; 63 g ai/ha,10
same,Pre-emerge Herbicidal Activity RICE,[11]; 250 g ai/ha,20
same,phytotoxicity rating ECHCG,[12]; 63 g ai/ha,0
same,phytotoxicity rating ECHCG,[12]; 250 g ai/ha,0
same,phytotoxicity rating SETVI,[13]; 63 g ai/ha,0
same,phytotoxicity rating SETVI,[13]; 250 g ai/ha,10
same,phytotoxicity rating IPOHE,[14]; 63 g ai/ha,80
same,phytotoxicity rating IPOHE,[14]; 250 g ai/ha,100
same,phytotoxicity rating SORHA,[15]; 63 g ai/ha,0
same,phytotoxicity rating SORHA,[15]; 250 g ai/ha,0
same,phytotoxicity rating DIGSA,[16]; 63 g ai/ha,0
same,phytotoxicity rating DIGSA,[16]; 250 g ai/ha,0
same,phytotoxicity rating AMARE,"[17]; 63 g ai/ha, rating scale 0-100 (0 no damage, 100 complete death)",40
same,phytotoxicity rating AMARE,[17]; [22],90
same,phytotoxicity rating CASOB,[18]; 63 g ai/ha,30
same,phytotoxicity rating CASOB,[18]; 250 g ai/ha,80
same,phytotoxicity rating ABUTH,[19]; 63 g ai/ha,70
same,phytotoxicity rating ABUTH,[19]; 250 g ai/ha,90
same,phytotoxicity rating CORN (crop damage),[20]; 63 g ai/ha,10
same,phytotoxicity rating CORN (crop damage),[20]; 250 g ai/ha,20
same,phytotoxicity rating RICE (crop damage),[21]; 63 g ai/ha,10
same,phytotoxicity rating RICE (crop damage),[21]; 250 g ai/ha,20
